{
  "source": "patent US20190195880A1",
  "about": "“METHODS AND KITS FOR PREDICTING THE SENSITIVITY OF A SUBJECT SUFFERING OF RENAL CANCER TO CANCER TREATMENT” (CENTRE NATIONAL DE LA RECHERCHE SCIENTIFIQUE (CNRS), priority 2016, published 2019)",
  "key": {"[1]": {"tested_on": "metastatic ccRCC", "test": "TORAVA trial (retrospective validation cohort): survival versus plasmatic CXCL5/CXCL7", "assay_type": "in vivo, human", "settings": "patients with CXCL7 plasma levels below 250 ng/ml", "method": "(§1) All patients gave written informed consent. The SUVEGIL trial (NCT00943839) was a multicenter prospective single-arm study. […] Patient characteristics and results have been previously described (Negrier et al., 2011).\n(§2) The CXCL5 and CXCL7 cut-off points (respectively 0.1 and 250 ng/ml) for PFS and OS were determined using smoothing spline curves analysis (R software, version 3.2.2). […] The predictive cut-off points determined in the SUVEGIL cohort were used for the TORAVA cohort."}, "[2]": {"tested_on": "metastatic ccRCC", "test": "Combination of SUVEGIL and TORAVA trials (sunitinib): survival versus plasmatic CXCL7", "assay_type": "in vivo, human", "settings": "both cohorts combined", "method": "as §1, §2"}, "[3]": {"tested_on": "metastatic ccRCC", "description": "Eligible patients were at least 18 years of age and had metastatic ccRCC histologically confirmed, with the presence of measurable disease according to Response Evaluation Criteria in Solid Tumors (RECIST) v1.1.\nThe primary end point of the study was to evaluate the correlation between plasmatic levels of CXCL5 and CXCL7 and the overall response rate (ORR). The response was evaluated by investigators' assessment.\nThe secondary end points were to evaluate the correlation between plasmatic levels of CXCL5 and/or CXCL7 and overall survival (OS) and progression-free survival (PFS), censored at last follow-up for those still alive or who have not progressed.\nBlood samples were centrifuged and the plasmas were collected and conserved at −80° C. Plasmatic levels of CXCL5 and CXCL7 were determined by ELISA using R&D (reference DY254) and Peprotech kits (reference 900-K40) respectively. Pure plasma or a 1/5 dilution was used for CXCL5 detection and a 1/100 dilution was used to detect CXCL7.\nSpearman's correlation was performed between best response rate and quantitative level of chemokine. The CXCL5 and CXCL7 cut-off points (respectively 0.1 and 250 ng/ml) for PFS and OS were determined using smoothing spline curves analysis (R software, version 3.2.2). Kaplan Meier method was used to produce survival curves and analyses of censored data were performed using Cox models. The predictive cut-off points determined in the SUVEGIL cohort were used for the TORAVA cohort."}, "[4]": {"settings": "CXCL7 plasma levels below 250 ng/ml"}},
  "note": "Like-named read-outs stand apart in the source and are kept apart here.",
  "data": [
    {"smiles": "CCN(CC)CCNC(=O)c1c(C)[nH]c(/C=C2\\C(=O)Nc3ccc(F)cc32)c1C", "note": "[sunitinib]", "values": [
      {"measurement": "PFS", "setting": "[1]", "result": 8.6, "unit": "months"},
      {"measurement": "OS", "setting": "[2]; CXCL7 plasma levels above 250 ng/ml, p=0.00025", "result": 34.4, "unit": "months"},
      {"measurement": "OS", "setting": "[2]; [4]", "result": 20.7, "unit": "months"},
      {"measurement": "median PFS", "setting": "[2]; [4]", "result": 8.3, "unit": "months"},
      {"measurement": "median PFS", "setting": "[3]; SUVEGIL prospective cohort, all patients", "result": 20.1, "unit": "months"},
      {"measurement": "median PFS", "setting": "[3]; patients with CXCL5 plasma levels below 0.1 ng/ml", "result": 14.9, "unit": "months"},
      {"measurement": "median OS", "setting": "[3]; patients with CXCL7 plasma levels below 250 ng/ml", "result": 20.5, "unit": "months"},
      {"measurement": "PFS", "setting": "[3]; patients with CXCL7 plasma levels below 250 ng/ml at diagnosis", "result": 15.1, "unit": "months"},
      {"measurement": "median OS", "setting": "[3]; patients with CXCL7 plasmatic levels above 250 ng/ml, p=0.001", "result": 34.4, "unit": "months"}
    ]}
  ]
}
